Assay results taken from publication PMC6407913, “DREADD Agonist 21 Is an Effective Agonist for Muscarinic-Based DREADDs in Vitro and in Vivo” (ACS Pharmacology & Translational Science, 2018).
“And” between values parts separate entries of the source, which are not always exact repeats. Identical values can stand only once.

How the values were obtained:
Type in all cases: cell-based
[1] = target: T1, 318 nonolfactory human GPCRs (Homo sapiens, UniProt O14843); conditions: FFA3; C21 5 µM
T1 construct: expressed in transfected cells; host or cells: HTLA cells, transient

[2] = target: T2, 318 nonolfactory human GPCRs (Homo sapiens, UniProt O15218); conditions: GPR182; C21 5 µM
T2 construct: expressed in transfected cells; host or cells: HTLA cells, transient
T2 sequence (O15218 whole entry): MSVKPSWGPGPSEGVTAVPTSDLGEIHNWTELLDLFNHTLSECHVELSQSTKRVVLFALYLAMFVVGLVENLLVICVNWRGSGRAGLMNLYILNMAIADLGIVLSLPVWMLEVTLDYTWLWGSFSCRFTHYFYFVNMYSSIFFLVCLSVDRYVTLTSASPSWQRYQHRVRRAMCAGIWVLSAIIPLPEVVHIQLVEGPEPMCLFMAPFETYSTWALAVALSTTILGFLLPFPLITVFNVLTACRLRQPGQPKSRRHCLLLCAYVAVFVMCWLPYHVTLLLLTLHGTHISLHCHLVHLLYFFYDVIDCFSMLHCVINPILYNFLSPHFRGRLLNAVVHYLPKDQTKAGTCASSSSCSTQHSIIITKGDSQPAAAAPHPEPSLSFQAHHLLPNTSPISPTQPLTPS

[3] = target: T3, 318 nonolfactory human GPCRs (Homo sapiens, UniProt O95800); conditions: GPR75; C21 5 µM
T3 construct: expressed in transfected cells; host or cells: HTLA cells, transient
T3 sequence (O95800 whole entry): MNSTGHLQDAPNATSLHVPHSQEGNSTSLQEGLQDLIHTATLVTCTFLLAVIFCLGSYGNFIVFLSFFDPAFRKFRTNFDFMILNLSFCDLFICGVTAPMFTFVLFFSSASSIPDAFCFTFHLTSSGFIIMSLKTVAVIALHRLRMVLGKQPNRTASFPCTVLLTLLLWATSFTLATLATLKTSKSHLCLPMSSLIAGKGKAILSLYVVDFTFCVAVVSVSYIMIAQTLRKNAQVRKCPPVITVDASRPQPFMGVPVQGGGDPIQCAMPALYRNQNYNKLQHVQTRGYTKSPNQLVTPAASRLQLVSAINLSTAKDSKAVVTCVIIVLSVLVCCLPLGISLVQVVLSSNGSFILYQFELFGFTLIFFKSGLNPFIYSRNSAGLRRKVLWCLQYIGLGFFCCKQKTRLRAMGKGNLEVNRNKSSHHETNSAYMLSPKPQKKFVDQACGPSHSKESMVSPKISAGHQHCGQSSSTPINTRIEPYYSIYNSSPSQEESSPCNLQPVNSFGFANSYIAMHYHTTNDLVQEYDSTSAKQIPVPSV

[4] = target: T4, 318 nonolfactory human GPCRs (Homo sapiens, UniProt P08912); conditions: CHRM5; C21 5 µM
T4 construct: expressed in transfected cells; host or cells: HTLA cells, transient

[5] = target: T5, 318 nonolfactory human GPCRs (Homo sapiens, UniProt P21452); conditions: TACR2; C21 5 µM
T5 construct: expressed in transfected cells; host or cells: HTLA cells, transient

[6] = target: 318 nonolfactory human GPCRs (Homo sapiens, UniProt P25021); conditions: HRH2; C21 5 µM
[7] = target: T6, 318 nonolfactory human GPCRs (Homo sapiens, UniProt P25089); conditions: FPR3; C21 5 µM
T6 construct: expressed in transfected cells; host or cells: HTLA cells, transient

[8] = target: 318 nonolfactory human GPCRs (Homo sapiens, UniProt P25090); conditions: FPR2; C21 5 µM
Sequence of 318 nonolfactory human GPCRs (Homo sapiens, UniProt P25090) (P25090 whole entry): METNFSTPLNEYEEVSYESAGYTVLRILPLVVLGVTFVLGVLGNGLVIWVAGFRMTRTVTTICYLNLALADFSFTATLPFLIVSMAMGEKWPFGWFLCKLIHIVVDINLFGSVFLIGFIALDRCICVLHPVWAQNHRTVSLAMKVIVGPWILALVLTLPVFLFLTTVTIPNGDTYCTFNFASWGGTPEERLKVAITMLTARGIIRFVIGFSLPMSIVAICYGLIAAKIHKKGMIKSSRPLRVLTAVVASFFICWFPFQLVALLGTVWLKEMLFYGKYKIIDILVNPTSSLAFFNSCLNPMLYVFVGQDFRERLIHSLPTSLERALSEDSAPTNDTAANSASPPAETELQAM

[9] = target: T7, 318 nonolfactory human GPCRs (Homo sapiens, UniProt P28336); conditions: NMBR; C21 5 µM
T7 construct: expressed in transfected cells; host or cells: HTLA cells, transient

[10] = target: T8, 318 nonolfactory human GPCRs (Homo sapiens, UniProt P30518); conditions: AVPR2; C21 5 µM
T8 construct: expressed in transfected cells; host or cells: HTLA cells, transient

[11] = target: 318 nonolfactory human GPCRs (Homo sapiens, UniProt P32238); conditions: CCKAR; C21 5 µM
[12] = target: T9, 318 nonolfactory human GPCRs (Homo sapiens, UniProt P32302); conditions: CXCR5; C21 5 µM
T9 construct: expressed in transfected cells; host or cells: HTLA cells, transient
T9 sequence (P32302 whole entry): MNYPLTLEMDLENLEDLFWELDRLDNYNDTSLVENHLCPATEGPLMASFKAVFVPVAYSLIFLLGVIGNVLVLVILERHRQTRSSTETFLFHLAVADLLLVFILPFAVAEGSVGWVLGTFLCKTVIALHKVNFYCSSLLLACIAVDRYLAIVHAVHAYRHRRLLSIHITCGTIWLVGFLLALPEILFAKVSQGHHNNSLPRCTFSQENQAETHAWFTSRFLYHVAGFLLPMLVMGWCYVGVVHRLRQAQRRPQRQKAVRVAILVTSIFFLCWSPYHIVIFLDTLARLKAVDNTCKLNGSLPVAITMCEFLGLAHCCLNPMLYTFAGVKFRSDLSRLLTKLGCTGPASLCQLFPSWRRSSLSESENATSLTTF

[13] = target: T10, 318 nonolfactory human GPCRs (Homo sapiens, UniProt P34998); conditions: CRHR1; C21 5 µM
T10 construct: expressed in transfected cells; host or cells: HTLA cells, transient
T10 sequence (P34998 24-415): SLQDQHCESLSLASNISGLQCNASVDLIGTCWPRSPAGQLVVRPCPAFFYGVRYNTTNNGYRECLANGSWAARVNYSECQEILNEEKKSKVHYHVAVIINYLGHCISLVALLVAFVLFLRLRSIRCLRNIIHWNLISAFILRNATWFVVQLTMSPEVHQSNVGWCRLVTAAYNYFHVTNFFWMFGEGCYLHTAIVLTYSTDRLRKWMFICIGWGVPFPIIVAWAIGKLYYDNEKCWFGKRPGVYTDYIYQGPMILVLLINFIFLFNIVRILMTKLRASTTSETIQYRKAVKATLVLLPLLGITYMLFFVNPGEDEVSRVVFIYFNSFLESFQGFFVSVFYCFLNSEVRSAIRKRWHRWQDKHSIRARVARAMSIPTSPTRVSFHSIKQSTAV

[14] = target: T11, 318 nonolfactory human GPCRs (Homo sapiens, UniProt P35367); conditions: HRH1; C21 5 µM
T11 construct: expressed in transfected cells; host or cells: HTLA cells, transient

[15] = target: T12, 318 nonolfactory human GPCRs (Homo sapiens, UniProt P41231); conditions: P2RY2; C21 5 µM
T12 construct: expressed in transfected cells; host or cells: HTLA cells, transient

[16] = target: T13, 318 nonolfactory human GPCRs (Homo sapiens, UniProt P43115); conditions: PTGER3; C21 5 µM
T13 construct: expressed in transfected cells; host or cells: HTLA cells, transient

[17] = target: 318 nonolfactory human GPCRs (Homo sapiens, UniProt P47211); conditions: GAL1; C21 5 µM
[18] = target: 318 nonolfactory human GPCRs (Homo sapiens, UniProt P47872); conditions: SCTR; C21 5 µM
[19] = target: 318 nonolfactory human GPCRs (Homo sapiens, UniProt P61073); conditions: CXCR4; C21 5 µM
[20] = target: T14, 318 nonolfactory human GPCRs (Homo sapiens, UniProt Q15077); conditions: P2RY6; C21 5 µM
T14 construct: expressed in transfected cells; host or cells: HTLA cells, transient

[21] = target: T15, 318 nonolfactory human GPCRs (Homo sapiens, UniProt Q8NFJ6); conditions: PK2; C21 5 µM
T15 construct: expressed in transfected cells; host or cells: HTLA cells, transient
T15 sequence (Q8NFJ6 whole entry): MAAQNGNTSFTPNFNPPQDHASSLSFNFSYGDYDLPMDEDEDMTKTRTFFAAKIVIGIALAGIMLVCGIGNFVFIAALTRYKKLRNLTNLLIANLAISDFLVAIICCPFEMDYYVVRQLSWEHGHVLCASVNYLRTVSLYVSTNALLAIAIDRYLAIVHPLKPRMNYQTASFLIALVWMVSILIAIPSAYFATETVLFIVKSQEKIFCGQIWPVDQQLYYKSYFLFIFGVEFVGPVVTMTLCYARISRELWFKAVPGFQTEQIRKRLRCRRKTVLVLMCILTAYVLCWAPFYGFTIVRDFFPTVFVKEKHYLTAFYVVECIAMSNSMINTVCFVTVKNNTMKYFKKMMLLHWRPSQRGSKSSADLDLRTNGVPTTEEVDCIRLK

[22] = target: T16, 318 nonolfactory human GPCRs (Homo sapiens, UniProt Q8NFN8); conditions: GPR156; C21 5 µM
T16 construct: expressed in transfected cells; host or cells: HTLA cells, transient

[23] = target: T17, 318 nonolfactory human GPCRs (Homo sapiens, UniProt Q8NGU9); conditions: GPR150; C21 5 µM
T17 construct: expressed in transfected cells; host or cells: HTLA cells, transient
T17 sequence (Q8NGU9 whole entry): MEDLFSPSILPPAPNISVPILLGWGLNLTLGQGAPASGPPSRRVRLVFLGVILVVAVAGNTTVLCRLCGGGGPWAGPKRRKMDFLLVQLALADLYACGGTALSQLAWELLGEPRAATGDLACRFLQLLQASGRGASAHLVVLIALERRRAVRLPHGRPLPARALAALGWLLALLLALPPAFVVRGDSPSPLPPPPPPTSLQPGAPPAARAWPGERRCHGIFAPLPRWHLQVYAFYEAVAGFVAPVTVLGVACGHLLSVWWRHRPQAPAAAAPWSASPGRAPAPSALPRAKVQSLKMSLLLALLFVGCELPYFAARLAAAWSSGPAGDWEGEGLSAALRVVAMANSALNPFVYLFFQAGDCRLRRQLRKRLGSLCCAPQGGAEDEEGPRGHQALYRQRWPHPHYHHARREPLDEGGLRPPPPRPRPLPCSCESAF

[24] = target: T18, 318 nonolfactory human GPCRs (Homo sapiens, UniProt Q8WXD0); conditions: RXFP2; C21 5 µM
T18 construct: expressed in transfected cells; host or cells: HTLA cells, transient

[25] = target: T19, 318 nonolfactory human GPCRs (Homo sapiens, UniProt Q92633); conditions: LPAR1; C21 5 µM
T19 construct: expressed in transfected cells; host or cells: HTLA cells, transient

[26] = target: T20, 318 nonolfactory human GPCRs (Homo sapiens, UniProt Q96P66); conditions: GPR101; C21 5 µM
T20 construct: expressed in transfected cells; host or cells: HTLA cells, transient

[27] = target: T21, 318 nonolfactory human GPCRs (Homo sapiens, UniProt Q99705); conditions: MCHR1R; C21 5 µM
T21 construct: expressed in transfected cells; host or cells: HTLA cells, transient
T21 sequence (Q99705 whole entry): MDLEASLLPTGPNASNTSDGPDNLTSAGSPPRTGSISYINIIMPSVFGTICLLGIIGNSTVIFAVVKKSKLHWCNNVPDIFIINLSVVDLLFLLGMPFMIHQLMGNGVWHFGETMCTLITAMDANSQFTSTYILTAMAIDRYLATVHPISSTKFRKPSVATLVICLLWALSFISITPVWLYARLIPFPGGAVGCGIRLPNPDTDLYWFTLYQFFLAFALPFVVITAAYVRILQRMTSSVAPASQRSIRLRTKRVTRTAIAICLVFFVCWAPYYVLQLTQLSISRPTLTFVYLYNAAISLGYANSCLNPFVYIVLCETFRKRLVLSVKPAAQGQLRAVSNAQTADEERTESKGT

[28] = target: T22, 318 nonolfactory human GPCRs (Homo sapiens, UniProt Q9BXA5); conditions: SUCNR1; C21 5 µM
T22 construct: expressed in transfected cells; host or cells: HTLA cells, transient

[29] = target: T23, 318 nonolfactory human GPCRs (Homo sapiens, UniProt Q9BXC0); conditions: HCA1; C21 5 µM
T23 construct: expressed in transfected cells; host or cells: HTLA cells, transient

[30] = target: T24, 318 nonolfactory human GPCRs (Homo sapiens, UniProt Q9BZJ6); conditions: GPR63; C21 5 µM
T24 construct: expressed in transfected cells; host or cells: HTLA cells, transient
T24 sequence (Q9BZJ6 whole entry): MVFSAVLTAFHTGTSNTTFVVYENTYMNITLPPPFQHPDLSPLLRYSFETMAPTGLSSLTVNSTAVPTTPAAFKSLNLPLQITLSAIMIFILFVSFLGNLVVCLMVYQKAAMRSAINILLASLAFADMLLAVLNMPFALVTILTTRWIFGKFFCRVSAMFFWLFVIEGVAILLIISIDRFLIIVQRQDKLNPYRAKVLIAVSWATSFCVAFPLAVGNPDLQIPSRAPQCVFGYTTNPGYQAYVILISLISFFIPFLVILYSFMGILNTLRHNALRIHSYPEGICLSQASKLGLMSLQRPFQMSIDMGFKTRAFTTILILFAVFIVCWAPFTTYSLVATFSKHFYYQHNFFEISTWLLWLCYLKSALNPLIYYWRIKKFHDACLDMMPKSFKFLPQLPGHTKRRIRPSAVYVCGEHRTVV

[31] = target: T25, 318 nonolfactory human GPCRs (Homo sapiens, UniProt Q9GZQ6); conditions: NPFF1; C21 5 µM
T25 construct: expressed in transfected cells; host or cells: HTLA cells, transient

[32] = target: T26, 318 nonolfactory human GPCRs (Homo sapiens, UniProt Q9H244); conditions: P2RY12; C21 5 µM
T26 construct: expressed in transfected cells; host or cells: HTLA cells, transient
T26 sequence (Q9H244 whole entry): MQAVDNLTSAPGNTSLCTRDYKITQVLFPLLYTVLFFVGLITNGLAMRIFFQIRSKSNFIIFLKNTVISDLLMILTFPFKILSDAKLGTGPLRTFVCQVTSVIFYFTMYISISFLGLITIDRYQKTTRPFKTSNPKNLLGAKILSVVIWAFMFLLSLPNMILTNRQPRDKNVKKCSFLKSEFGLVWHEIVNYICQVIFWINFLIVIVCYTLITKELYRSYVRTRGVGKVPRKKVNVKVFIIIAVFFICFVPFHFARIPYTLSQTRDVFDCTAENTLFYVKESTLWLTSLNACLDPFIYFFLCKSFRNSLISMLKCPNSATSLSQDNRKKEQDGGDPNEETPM

[33] = target: T27, 318 nonolfactory human GPCRs (Homo sapiens, UniProt Q9UKP6); conditions: UTS2R; C21 5 µM
T27 construct: expressed in transfected cells; host or cells: HTLA cells, transient
T27 sequence (Q9UKP6 whole entry): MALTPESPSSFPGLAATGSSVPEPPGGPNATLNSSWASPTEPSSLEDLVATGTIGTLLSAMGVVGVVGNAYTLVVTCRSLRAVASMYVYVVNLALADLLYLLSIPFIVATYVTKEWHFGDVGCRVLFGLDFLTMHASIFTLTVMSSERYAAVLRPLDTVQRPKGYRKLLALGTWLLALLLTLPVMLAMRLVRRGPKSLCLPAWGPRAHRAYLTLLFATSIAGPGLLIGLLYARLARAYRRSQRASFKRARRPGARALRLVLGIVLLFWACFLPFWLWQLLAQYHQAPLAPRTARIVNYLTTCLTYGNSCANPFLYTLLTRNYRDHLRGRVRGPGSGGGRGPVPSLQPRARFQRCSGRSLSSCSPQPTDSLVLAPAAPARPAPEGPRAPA

[34] = target: T28, 318 nonolfactory human GPCRs (Homo sapiens, UniProt Q9Y5Y3); conditions: GPR45; C21 5 µM
T28 construct: expressed in transfected cells; host or cells: HTLA cells, transient
T28 sequence (Q9Y5Y3 whole entry): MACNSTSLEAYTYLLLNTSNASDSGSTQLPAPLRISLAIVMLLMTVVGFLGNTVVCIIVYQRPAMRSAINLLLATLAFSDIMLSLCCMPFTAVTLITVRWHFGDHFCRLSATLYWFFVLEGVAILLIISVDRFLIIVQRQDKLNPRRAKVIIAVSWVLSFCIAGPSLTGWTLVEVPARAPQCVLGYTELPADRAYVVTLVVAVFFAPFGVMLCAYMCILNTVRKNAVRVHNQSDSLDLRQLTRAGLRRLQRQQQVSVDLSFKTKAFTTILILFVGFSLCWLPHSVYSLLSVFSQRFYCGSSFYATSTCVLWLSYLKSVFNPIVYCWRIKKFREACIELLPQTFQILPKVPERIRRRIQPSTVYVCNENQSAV

c1ccc2c(c1)N=C(N1CCNCC1)c1ccccc1N2 [C21, 11-(1-piperazinyl)-5H-dibenzo[b,e][1,4]diazepine]
FOLD OVER BASAL [1]: 0.6 fold and 0.7 fold
FOLD OVER BASAL [2]: 0.9 fold and 1 fold and 1.1 fold and 0.7 fold
FOLD OVER BASAL [3]: 1.1 fold and 0.8 fold and 0.7 fold
FOLD OVER BASAL [4]: 0.7 fold and 0.8 fold
FOLD OVER BASAL [5]: 0.7 fold and 0.9 fold and 0.6 fold and 1.1 fold
FOLD OVER BASAL [6]: 1.7 fold and 1.4 fold and 1.6 fold and 1.3 fold
FOLD OVER BASAL [7]: 1.2 fold and 0.9 fold and 1.1 fold and 1 fold
FOLD OVER BASAL [8]: 1 fold and 1.1 fold and 0.9 fold
FOLD OVER BASAL [9]: 1 fold and 0.6 fold and 0.8 fold
FOLD OVER BASAL [10]: 1.1 fold and 1.2 fold
FOLD OVER BASAL [11]: 1.2 fold and 0.8 fold and 0.7 fold
FOLD OVER BASAL [12]: 0.9 fold and 1.3 fold and 1.2 fold
FOLD OVER BASAL [13]: 1.8 fold and 0.9 fold and 1.1 fold and 1.2 fold
FOLD OVER BASAL [14]: 0.9 fold and 0.6 fold and 0.8 fold
FOLD OVER BASAL [15]: 1.4 fold and 1.2 fold and 1.3 fold and 1 fold
FOLD OVER BASAL [16]: 0.7 fold and 1 fold and 0.5 fold and 0.9 fold
FOLD OVER BASAL [17]: 0.7 fold and 0.5 fold and 0.9 fold and 0.8 fold
FOLD OVER BASAL [18]: 0.9 fold and 1 fold
FOLD OVER BASAL [19]: 0.7 fold and 1 fold and 0.9 fold
FOLD OVER BASAL [20]: 1.4 fold and 0.8 fold and 1.3 fold
FOLD OVER BASAL [21]: 0.9 fold and 1 fold and 1.1 fold and 1.3 fold
FOLD OVER BASAL [22]: 1.1 fold and 0.9 fold and 1.4 fold
FOLD OVER BASAL [23]: 1.6 fold and 1.5 fold and 1.7 fold
FOLD OVER BASAL [24]: 1.1 fold and 0.9 fold
FOLD OVER BASAL [25]: 1 fold and 0.8 fold
FOLD OVER BASAL [26]: 1.2 fold and 1 fold and 0.9 fold
FOLD OVER BASAL [27]: 1 fold and 0.8 fold and 1.1 fold and 1.4 fold
FOLD OVER BASAL [28]: 0.6 fold and 0.7 fold
FOLD OVER BASAL [29]: 1.8 fold and 1.3 fold and 1.7 fold and 0.9 fold
FOLD OVER BASAL [30]: 0.6 fold and 0.5 fold and 0.9 fold
FOLD OVER BASAL [31]: 1.5 fold and 1.1 fold and 1.2 fold
FOLD OVER BASAL [32]: 0.6 fold and 1 fold and 0.5 fold and 0.8 fold
FOLD OVER BASAL [33]: 0.8 fold and 0.9 fold and 1 fold
FOLD OVER BASAL [34]: 0.8 fold and 0.6 fold and 1 fold
